Earlier results on 6 compounds are cited in US7067320B2, “Sensor for luminescense-optical determination of an analyte” (Roche Diagnostics Operations, Inc., priority 2000, dated 2006).

As usually defined, the pKa is the pH at which an ionisable group is half protonated.

Details in one data set: not given
`Cc1c(C2(c3cc(C(C)C)c(O)c(Br)c3C)OS(=O)(=O)c3ccccc32)cc(C(C)C)c(O)c1Br` [Bromothymol blue]: the pKa is 6.7.

On to `Cc1ccc(O)c(N=Nc2c(O)cc(S(=O)(=O)O)c3ccccc23)c1` [Calmagit], for which the pKa is reported as 8.0.

For `O=C1OC(c2ccc(O)c3ccccc23)(c2ccc(O)c3ccccc23)c2ccccc21` [Naphthol-phthalein], the pKa is listed as 6.7.

For the compound Dibromoxylenol blue, the pKa is on record as 7.6.

As to `O=S1(=O)OC(c2cc(Br)c(O)c(Br)c2)(c2cc(Br)c(O)c(Br)c2)c2ccccc21` [Bromophenol blue], the pKa is 3.8.

As for `O=C1C=CC(=Nc2ccc(O)cc2)C=C1Cl` [o-chlorophenol-indophenol], the pKa is 7.1.

Still in this data set, the particulars now being: second value printed in the same cell.
As to `O=C1OC(c2ccc(O)c3ccccc23)(c2ccc(O)c3ccccc23)c2ccccc21` [Naphthol-phthalein], the pKa is 7.9.
